This note sets out measurements from BindingDB's records for patent US20250346571 (Xizang Haisco Pharmaceutical, 2025).

Each structure is given as a SMILES string.

The target of this test is Poly [ADP-ribose] polymerase 1 (Homo sapiens, UniProt P09874). The test is described as follows: PARP-1 Enzyme Activity Test Experiment. The procedure: PARP-1 chemical […] detection kit was purchased from BPS Bioscience. The histone solution in the kit was diluted 5× with 1×PBS, and 25 μL of the diluted histone solution was added to a microwell plate and incubated overnight at 4° C. After the incubation, the plate was washed three times with PBST (0.05% Tween-20). 100 μL of the blocking solution was added to the microwell plate and incubated at 25° C. for 90 minutes. After the incubation was completed, the plate was washed three times with PBST. 2.5 μL of compounds at different concentrations diluted in test buffer and 12.5 μL of substrate mixed solution (1.25 μL 10×PARP test buffer; 1.25 μL 10×PARP test mixed solution; 2.5 μL Activated DNA, 7.5 μL double-distilled water) were added to the microwell plate. The PARP-1 enzyme was diluted to 2 ng/μL, […] was added to the microwell plate, and the reaction system was incubated at 25° C. for 60 minutes. After the incubation was completed, the plate was washed three times with PBST. Streptavidin-HRP was diluted 50× with a blocking solution, and 25 μL of the diluent was added to the microwell plate and incubated at 25° C. for 30 minutes. […] ELISA ECL substrate A and substrate B were uniformly mixed at a ratio of 1:1 (v/v), 50 μL of the mixture was added to the microwell plate, and the chemiluminescence value was read.
Chain of Poly [ADP-ribose] polymerase 1 (P09874 whole entry): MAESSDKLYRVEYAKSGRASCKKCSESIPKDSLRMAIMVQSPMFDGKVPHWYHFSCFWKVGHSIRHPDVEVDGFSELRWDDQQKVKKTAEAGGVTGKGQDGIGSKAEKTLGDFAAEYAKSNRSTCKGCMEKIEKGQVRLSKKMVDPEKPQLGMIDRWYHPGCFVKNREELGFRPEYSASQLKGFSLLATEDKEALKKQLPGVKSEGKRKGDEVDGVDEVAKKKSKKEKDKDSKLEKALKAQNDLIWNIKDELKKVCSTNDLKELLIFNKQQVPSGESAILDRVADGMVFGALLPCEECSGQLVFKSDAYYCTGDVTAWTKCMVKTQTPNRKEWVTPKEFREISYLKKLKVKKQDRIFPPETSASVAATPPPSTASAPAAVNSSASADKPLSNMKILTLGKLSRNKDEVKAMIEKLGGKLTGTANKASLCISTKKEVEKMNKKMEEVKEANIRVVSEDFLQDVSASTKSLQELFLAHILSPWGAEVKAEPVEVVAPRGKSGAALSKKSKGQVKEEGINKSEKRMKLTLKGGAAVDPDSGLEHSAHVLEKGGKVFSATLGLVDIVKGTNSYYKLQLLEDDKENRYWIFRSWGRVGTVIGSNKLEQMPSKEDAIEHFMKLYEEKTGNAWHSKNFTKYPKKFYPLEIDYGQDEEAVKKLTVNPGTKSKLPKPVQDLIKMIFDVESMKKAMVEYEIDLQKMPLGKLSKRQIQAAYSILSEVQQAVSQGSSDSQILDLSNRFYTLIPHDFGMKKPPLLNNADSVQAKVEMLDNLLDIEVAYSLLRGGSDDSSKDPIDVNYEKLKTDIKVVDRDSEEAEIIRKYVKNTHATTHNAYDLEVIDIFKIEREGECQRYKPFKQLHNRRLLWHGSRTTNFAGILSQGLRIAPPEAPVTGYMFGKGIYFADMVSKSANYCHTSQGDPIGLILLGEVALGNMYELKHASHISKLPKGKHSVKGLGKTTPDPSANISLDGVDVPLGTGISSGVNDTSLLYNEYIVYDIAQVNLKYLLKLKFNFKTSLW

For the compound `Cn1cc(NC(=O)c2ccc(N3CCN(Cc4ccc5nc(C(F)F)c(=O)[nH]c5c4F)CC3)c(F)n2)cn1` [US20250346571, Compound 15], the half-inhibitory concentration (IC50) is less than 5 nM.
